Experimental data: patent publication US20080167387A1, “Microglia Facilitated Amyloidogenesis Assay” (Pfizer Inc., priority 2005, published 2008)
Entries after “also recorded” stand apart in the source; their conditions may differ. Read-outs that look alike come from different tables or passages of the source.

Key:
[1] = tested on: amyloid formation from Aβ(1-42) peptides mediated by rat primary microglia; assay: Microglial-facilitated amyloidogenesis (MFA) assay, thioflavin S staining; assay type: cell-based; conditions: for amyloid formation mediated by microglia (thioflavin S staining) / amyloid formation mediated by rat primary microglia (thioflavin S staining): 37° C., 18 hours; for amyloid formation mediated by rat primary microglia (thioflavin S staining): 0.32 μM or 3.2 μM
Experimental: Primary rat brain microglia prepared as described in Example 1, were plated into Falcon black/clear 96 well plates at a concentration of 2×10^5 cells per well. The microglia were allowed to attach to cell walls after incubation at 37° C. for several hours to overnight. Fresh DMEM, with 10% fetal bovine serum, 0.1% penicillin/streptomycin and L-glutamine at 200 mM was used to replace the old media, while cells were gently washed to remove debris and dead cells.
[…] (The pre-treatment step is optional.) After pre-treatment, the candidate compound and Aβ (1-42) peptides were added to the pre-treated cells. The final concentration of Aβ (1-42) peptides was 10 μM. […] The final volume for each well was about 100 μl/well.
Aβ (1-42) peptides and Aβ (1-40) peptides, obtained from American Peptides of Sunnyvale, Calif., were stored at −20° C. Before use, Aβ (1-42) peptides were allowed to warm to room temperature for 15 minutes. To dissolve the Aβ (1-42) peptides, 200 μl of sterile water was added to the peptides. Each sample of peptides was vortexed to dissolve the peptides. Each sample was then diluted with 19 mls of MSFM. The final concentration of Aβ (1-42) peptides was 10 μM.
[…] After incubation, microglia were fixed with 100 μl of 95% ethanol and 5% acetic acid, which was directly poured into the media, and then incubated for 5 min. The media were poured out, and another 100 μl of fresh fixative having 95% ethanol and 5% acetic acid was added to the microglia for 10 min.
Fixed cells were stained with 100 μl thioflavin S solution, obtained from Sigma of St Louis, Mo. for approximately 3-5 min. Thioflavin S solution was 0.125 mg/ml in 40% ethanol, filtered through #1 Whatman filter paper before use.
Cells were washed twice, each time for 5 min, with 100 μl of 70% ethanol. After the washes, the cells were examined using an FITC filter under a fluorescent microscope. For each well, 3 images were collected and images were captured on a Zeiss Axiovert 100 M, with a 10× objective, using a digital CCD camera, and using MicroMax obtained from Roper Instruments of Tuscon, Ariz. Each treatment condition was run in triplicate, with 3 images collected per well to avoid areas with sparse cell growth and debris. Relative fluorescence intensity was measured.

rat primary microglia = assay: Microglial viability, MTT reaction product
Experimental: The viability of microglia was also determined by measuring the level of the tetrazolium salt 3,[4,5-dimethylthiazol-2-yl]-2,5-diphenyltetrazolium bromide (MTT) reaction product, using the method provided by Trevigen Inc. of Gaithersburg, Md.

[2] = tested on: intracellular cAMP in rat primary microglia; assay: Level of intracellular cAMP in microglia; assay type: cell-based; conditions: 1 μM, about 20 minutes
Experimental: The effect on the level of intracellular cAMP in microglia by PGE2 was also investigated. Rat primary microglia were prepared using the methods described in Example 1, and were exposed to PGE2, at a concentration of 1 μM, for about 20 minutes. […] Microglial viability was investigated by measuring the MTT reaction product in microglia.

[3] = 32 nM-10 μM, one hour prior to 10 μM Aβ(1-42)
[4] = Example 15, prostaglandin E2 receptor agonists

## CC(C)c1c(C(=O)Nc2ccccc2)c(-c2ccccc2)c(-c2ccc(F)cc2)n1CC[C@@H](O)C[C@@H](O)CC(=O)O [atorvastatin]
[1]; conditions not given
  result in the MFA assay: very positively

## CC(C)(C)c1ccc(CN(Cc2cccc(OCC(=O)O)c2)S(=O)(=O)c2cccnc2)cc1 [Compound I, (3-{[(4-tert-Butyl-benzyl)-(pyridine-3-sulfonyl)-amino]-methyl}-phenoxy)-acetic acid]
[1]; [3]
  amyloid formation mediated by microglia (thioflavin S staining): inhibited

## CC[C@H](C)C(=O)O[C@H]1CCC=C2C=C[C@H](C)[C@H](CC[C@@H]3C[C@@H](O)CC(=O)O3)[C@H]21 [mevastatin]
[1]; conditions not given
  result in the MFA assay: very positively

## CCCC(=O)Nc1ncnc2c1ncn2[C@@H]1O[C@@H]2COP(=O)(O)O[C@H]2[C@H]1OC(=O)CCC [db-cAMP, dibutyryl-cAMP]
[1]; db-cAMP 8-80 μM, 8-Br cAMP 25-250 μM, from one hour prior to 10 μM Aβ(1-42)
  amyloid formation mediated by microglia (thioflavin S staining): inhibited; also recorded: inhibition
Rat primary microglia; Example 13, cAMP analogs
  microglial viability (MTT reaction product): neither db-cAMP nor 8-Br cAMP had any effect

## CCCCC[C@H](O)/C=C/[C@H]1[C@H](O)CC(=O)[C@@H]1C/C=C\CCCC(=O)O [PGE2, Prostaglandin E2]
[1]; from one hour prior to 10 μM Aβ(1-42)
  amyloid formation mediated by rat primary microglia (thioflavin S staining): able to reduce
[1]; from one hour prior to 10 μM Aβ(1-42), listed as prostaglandin EP2 sub-type
  amyloid formation mediated by rat primary microglia (thioflavin S staining): inhibitory effect
[2]
  level of intracellular cAMP in microglia: significantly increased
[2]; listed as prostaglandin subtype EP2
  level of intracellular cAMP in microglia: increases
Rat primary microglia
  microglial viability (MTT reaction product): did not lead to any decrease

## CC[C@H](C)C(=O)O[C@H]1C[C@@H](C)C=C2C=C[C@H](C)[C@H](CC[C@@H]3C[C@@H](O)CC(=O)O3)[C@H]21 [lovastatin]
[1]; conditions not given
  result in the MFA assay: very positively

## CCCCc1ccc(CN(CCCCCCC(=O)O)S(C)(=O)=O)cc1 [Compound II]
[1]; [3]
  amyloid formation mediated by microglia (thioflavin S staining): inhibited

## CCCC1([C@H](O)C/C=C/[C@H]2[C@H](O)CC(=O)[C@@H]2CCCCCCC(=O)OC)CCC1 [butaprost]
[1]; [3]
  amyloid formation mediated by microglia (thioflavin S staining): inhibit
Rat primary microglia; [4]
  microglial viability (MTT reaction product): neither butaprost nor sulprostone had any effect

## NC[C@H](O)c1ccc(O)c(O)c1 [Norepinephrine]
[1]; conditions not given
  cell-mediated amyloidogenesis: blocks

## CS(=O)(=O)NC(=O)CCC/C=C\C[C@H]1C(=O)C[C@@H](O)[C@@H]1/C=C/[C@@H](O)COc1ccccc1 [sulprostone]
Rat primary microglia; [4]
  microglial viability (MTT reaction product): neither butaprost nor sulprostone had any effect
